“Also recorded” adds a separate entry of the source. Where no end group is shown, it is not given here. The star is where a group is joined. For = O=C*
Tests used:
[1] = system: patients with ST-Segment Elevation Myocardial Infarction; details: EMBRACE STEMI trial; cited from earlier work
HF patients = details: small study, wide confidence intervals; cited from earlier work
rabbit skin = details: within the first 30 minutes, neutrophil infiltration; cited from earlier work
hearts in cold storage = assay: Heart cold storage for 6 hours in HH solution (UW+CCrP) vs UW
Protocol: (§1) Furthermore, there was a higher weight gain in control hearts (UW) after 6 hours of cold storage compared to the CCrP-treated hearts (HH). […] The observed reduction of heart edema in the CCrP hearts (HH) is crucial for the restoration of contractile function during reperfusion at the end of 6-hour storage. […] Lewis rats were used for both the donors and recipients to avoid immunologic rejection. This approach allowed a focus at determining the in vivo cardioprotective benefits of CCrP treatment and to evaluate whether CCrP would restore cardiac contractility after prolonged cold storage and increase graft survival. Echocardiography (ECHO) analyses were conducted 2 hours after transplantation at day 0 and at day 3 before sacrifice.

rat grafted hearts = assay: In vivo rat syngeneic abdominal heterotopic heart transplantation after 22-24 hours cold storage; details: after 22 and 24 hours of cold storage; control poor
Protocol: as §1
Saline-treated control donor rats were evidently dilated with an increase in the sizes of both ventricles and atria. Additionally, the color was mildly cyanotic and the contractility was poor and irregular in rhythm. In most control grafted hearts, their heart beating score ranged from 1+ to 2+ at day 0 and day 3. Protection was shown in most of CCrP grafted hearts at day 3 where the myocardial color and the consistency of the degree of contractility were almost the same as day zero. […] Most the control grafted hearts, on the other hand, continued to show evidence of ischemia as well as loss of wall thickness and cardiac mass by day 0 and day 3 (FIG. 43).

[2] = Crossing of the blood-brain barrier
mRNA-ANAPC11 = assay: qPCR of Nourin RNA network in ISO rat model of HF: serum mRNA-ANAPC11 gene expression; format: in vivo; details: for reduction of mRNA-ANAPC11 gene expression: serum day 14
Protocol: (§2) The standard quantitative real time PCR (qPCR) molecular assay described in Example 6 was used to determine the levels of Nourin RNA network in the ISO rat model of ischemia-induced HF. It was tested if the hypothesis that the levels of gene expression of Nourin molecular RNA Network (miR-137, miRNA-106b, mRNA FTHL-17, mRNA ANAPC11 and lncR-CTB89H12.4) will be elevated in HF rats, and that CCrP treatment will reduce their gene expression of Nourin molecular RNA Network in a dose-response manner.
(§3) After 14 days, gene expression of Nourin-dependent miR-137 and miR-106b and their signaling pathways mRNA-FTLH-17, mRNA-ANAPC11 and lncR-CTB89H12.4 were evaluated by qRT-PCR (Example 6).

mRNA-FTHL-17 = assay: qPCR of Nourin RNA network in ISO rat model of HF: serum mRNA-FTHL-17 gene expression; format: in vivo; details: for reduction of mRNA-FTHL-17 gene expression: serum day 14
Protocol: as §2, §3

miR-106b = assay: qPCR of Nourin RNA network in ISO rat model of HF: serum miR-106b gene expression; format: in vivo; details: for reduction of miR-106b gene expression: serum day 14
Protocol: as §2, §3

lncR-CTB89H12.4 = assay: qPCR of Nourin RNA network in ISO rat model of HF: serum lncR-CTB89H12.4 gene expression; format: in vivo; details: for increase of lncR-CTB89H12.4 gene expression: serum day 14
Protocol: as §2, §3

miR-137 [3] = assay: qPCR of Nourin RNA network in ISO rat model of HF: serum miR-137 gene expression; format: in vivo; details: for reduction of miR-137 gene expression: serum day 14, vs ISO/saline
Protocol: as §2, §3

ISO rat model of HF = assay: Standard isoproterenol (ISO) rat model of heart failure: CK-MB, ejection fraction, collagen, fibrosis, heart weight, physical activity; format: in vivo; parameters: heart weight: unit not given here; details: for Ejection Fraction (EF %) by ECHO: after 14 days
miR-137 [4] = details: spontaneously hypertensive rats; cited from earlier work
Swine Flu H1N1 virus = details: mice inoculated with Swine Flu H1N1 virus; cited from earlier work
Nourin = details: in-vitro; cited from earlier work

Protocol for healthy rats: After 14 days, ECHO analysis for Ejection Fraction (EF %) was conducted, as well as heart weight (mg), histologic analysis for fibrosis and deposition of collagen. Mean±S.E.M and one-way ANOVA analysis were used.

Compound: elamipretide
- primary or secondary outcomes [1]: did not improve the primary or secondary outcomes
- left ventricular volumes (HF patients): reduce left ventricular volumes

Compound: Nourin: 3 KDa N-formyl peptide released by ischemic heart, inflammatory mediator (SEQ ID NO:15) (For-MIINHNLAAINSHRSPGADGNGGEAMPGGGR; listed as Homo sapiens)
- inflammatory response in skin (rabbit skin): acute inflammatory response

Compound: Cyclocreatine Phosphate [CCrP]
- myocardial fibrosis (Masson's trichrome) (healthy rats; control healthy rats, CCrP 0.8 g/kg/day, day 14): no fibrosis
- toxicity in heart, liver and renal function (healthy rats; healthy rats, CCrP 0.8 g/kg daily for 14 days): no toxicity; also recorded: no observed toxic effect
- levels of liver enzyme ALT, kidney Creatinine and Urea, CCrP vs saline (healthy rats; normal rats, CCrP 0.8 g/kg IP daily for 14 days): no significant difference; also recorded: no significance difference
- heart weight (healthy rats; normal rats, CCrP 0.8 g/kg daily for 14 days): 0.6
- collagen % (healthy rats; normal rats, CCrP 0.8 g/kg daily for 14 days, control saline 0.1): 0.1%
- Ejection Fraction (EF %) by ECHO (healthy rats; normal rats, CCrP 0.8 g/kg daily for 14 days, control saline 64): 61%
- heart weight after cold storage (hearts in cold storage; 6 hours cold storage, HH solution (UW+CCrP), control (UW) 0.31 gm): 0.25 gm
- recovery of contractile function (hearts in cold storage; CCrP treated-group (HH) vs saline control): significantly better
- general overall survival of the cardiac tissue of grafted hearts (rat grafted hearts): very good to excellent
- crossing of the blood-brain barrier [2]: crosses blood brain barrier
- reduction of mRNA-ANAPC11 gene expression (mRNA-ANAPC11; ISO/CCrP 0.4 g/kg): 18%
- reduction of mRNA-ANAPC11 gene expression (mRNA-ANAPC11; ISO/CCrP 0.8 g/kg): 31%
- reduction of mRNA-ANAPC11 gene expression (mRNA-ANAPC11; ISO/CCrP 1.2 g/kg): 70%
- mRNA-ANAPC11 gene expression (Mean) (mRNA-ANAPC11; healthy rats, CCrP 0.8 g/kg, saline-treated healthy rats 1.0): 0.9
- reduction of mRNA-FTHL-17 gene expression (mRNA-FTHL-17; ISO/CCrP 0.4 g/kg): 16%
- reduction of mRNA-FTHL-17 gene expression (mRNA-FTHL-17; ISO/CCrP 0.8 g/kg): 30%
- reduction of mRNA-FTHL-17 gene expression (mRNA-FTHL-17; ISO/CCrP 1.2 g/kg): 75%
- mRNA-FTHL-17 gene expression (Mean) (mRNA-FTHL-17; healthy rats, CCrP 0.8 g/kg, saline-treated healthy rats 1.01): 0.67
- reduction of miR-106b gene expression (miR-106b; ISO/CCrP 0.4 g/kg): 18%
- reduction of miR-106b gene expression (miR-106b; ISO/CCrP 0.8 g/kg): 44%
- reduction of miR-106b gene expression (miR-106b; ISO/CCrP 1.2 g/kg): 72%
- miR-106b gene expression (Mean) (miR-106b; healthy rats, CCrP 0.8 g/kg, saline-treated healthy rats 4.62): 5.62
- increase of lncR-CTB89H12.4 gene expression (lncR-CTB89H12.4; ISO/CCrP 0.4 g/kg): 1.33 fold
- increase of lncR-CTB89H12.4 gene expression (lncR-CTB89H12.4; ISO/CCrP 0.8 g/kg): 7.66 fold
- increase of lncR-CTB89H12.4 gene expression (lncR-CTB89H12.4; ISO/CCrP 1.2 g/kg): 14.33 fold
- lncR-CTB89H12.4 gene expression (Mean) (lncR-CTB89H12.4; healthy rats, CCrP 0.8 g/kg, saline-treated healthy rats 1.1): 1.3
- reduction of miR-137 gene expression (miR-137 [3]; ISO/CCrP 0.4 g/kg): 33%
- reduction of miR-137 gene expression (miR-137 [3]; ISO/CCrP 0.8 g/kg): 75%
- reduction of miR-137 gene expression (miR-137 [3]; ISO/CCrP 1.2 g/kg): 68%
- miR-137 gene expression (Mean) (miR-137 [3]; healthy rats, CCrP 0.8 g/kg, saline-treated healthy rats 1.15): 1.60
- Ejection Fraction (EF %) by ECHO (ISO rat model of HF; ISO/CCrP 0.4 g/kg): 54%
- collagen % (ISO rat model of HF; ISO/CCrP 0.4 g/kg, day 14): 3.3%
- heart weight (ISO rat model of HF; ISO/CCrP 0.4 g/kg, day 14, ISO 0.8 mg, normal saline 0.6 mg): 0.7
- Serum CK-MB (ISO rat model of HF; ISO/CCrP 0.8 g/kg, 24 hours after last ISO injection, ISO 206.20±6.25, control saline 82.60±5.2): 70.67±5.79 U/L
- heart weight (ISO rat model of HF; ISO/CCrP 0.8 g/kg, day 14): 0.6
- Ejection Fraction (EF %) by ECHO (ISO rat model of HF; ISO/CCrP 0.8 g/kg/day, ISO 36, control saline 64): 64%
- myocardial fibrosis (Masson's trichrome) (ISO rat model of HF; ISO/CCrP 0.8 g/kg/day, day 14): very low fibrosis; also recorded: delicate fibrous tissue between the myocardial bundles, almost similar to healthy normal rats
- collagen % (ISO rat model of HF; ISO/CCrP 0.8 g/kg/day, day 14, ISO/saline 4.1): 0.7%
- Ejection Fraction (EF %) by ECHO (ISO rat model of HF; ISO/CCrP 1.2 g/kg): 59%
- collagen % (ISO rat model of HF; ISO/CCrP 1.2 g/kg, day 14): 0.2%
- heart weight (ISO rat model of HF; ISO/CCrP 1.2 g/kg, day 14): 0.7
- physical activity (ISO rat model of HF; ISO/CCrP group (n=5), day 14 before sacrifice): high physical activity

Compound: C[C@H](CS)C(=O)N1CCC[C@H]1C(=O)O [captopril]
- miR-137 expression (miR-137 [4]): inhibit miR-137 expression

Compound: C/C=C/C[C@@H](C)[C@@H](O)[C@H]1C(=O)N[C@@H](CC)C(=O)N(C)CC(=O)N(C)[C@@H](CC(C)C)C(=O)N[C@@H](C(C)C)C(=O)N(C)[C@@H](CC(C)C)C(=O)N[C@@H](C)C(=O)N[C@H](C)C(=O)N(C)[C@@H](CC(C)C)C(=O)N(C)[C@@H](CC(C)C)C(=O)N(C)[C@H](C(C)C)C(=O)N1C [Cyclosporin H]
- lung inflammation (Swine Flu H1N1 virus): significantly reduced lung inflammation
- Nourin activity (Nourin): inhibited Nourin activity

From patent US11761966B2, “Nourin gene-based RNA molecular network: novel early diagnostic and prognostic biomarkers for coronary artery disease, unstable angina, STEMI/NSTEMI and heart failure” (Nour Heart, Inc., priority 2018, dated 2023)
